Reference: ChEMBL document CHEMBL2406955, “Synthesis and cytotoxic activities of novel hybrid 2-phenyl-3-alkylbenzofuran and imidazole/triazole compounds” (Bioorg Med Chem Lett, 2013)

Assays:
SW480 [1] = experiment: Cytotoxicity against human SW480 cells after 48 hrs by MTT assay; assay type: functional, cell-based; conditions: SW480, 48 h
MCF7 [2] = experiment: Cytotoxicity against human MCF7 cells after 48 hrs by MTT assay; assay type: functional, cell-based; conditions: MCF7, 48 h
SMMC-7721 = experiment: Cytotoxicity against human SMMC7721 cells after 48 hrs by MTT assay; assay type: functional, cell-based; conditions: SMMC-7721, 48 h
HL-60 = experiment: Cytotoxicity against human HL60 cells after 48 hrs by MTT assay; assay type: functional, cell-based; conditions: HL-60, 48 h
A549 = experiment: Cytotoxicity against human A549 cells after 48 hrs by MTT assay; assay type: functional, cell-based; conditions: A549, 48 h
[3] = target: Serine/threonine-protein kinase mTOR (Homo sapiens) (UniProt P42345); experiment: Inhibition of mTOR (unknown origin) assessed as ratio of cytoplasmic to nuclear level of eukaryotic initiation factor 4E
MCF7 [4] = experiment: Ratio of cisplatin IC50 to compound IC50 for human MCF7 cells; assay type: functional
SW480 [5] = experiment: Ratio of cisplatin IC50 to compound IC50 for human SW480 cells; assay type: functional

Row | SMILES | IC50 (SW480 [1]) [µM] | IC50 (MCF7 [2]) [µM] | IC50 (SMMC-7721) [µM] | IC50 (HL-60) [µM] | IC50 (A549) [µM] | Ratio [3] | Ratio IC50 (MCF7 [4]) | Ratio IC50 (SW480 [5])
1 | O=C(C[n+]1cn(Cc2c(-c3ccccc3)oc3ccccc23)c2ccccc21)c1ccccc1 | 3.44 | 3.92 | 8.46 | 1.97 | 12.2 |  |  | 
2 | CCc1n(Cc2c(-c3ccccc3)oc3ccccc23)cc[n+]1CC(=O)c1ccc(Br)cc1 | 3.58 | 2.89 | 6.07 | 0.72 | 12.8 |  |  | 
3 | c1ccc(C[n+]2cnn(Cc3c(-c4ccccc4)oc4ccccc34)c2)cc1 | > 40 | > 40 | > 40 | > 40 | > 40 |  |  | 
4 | CCc1n(Cc2c(-c3ccccc3)oc3ccccc23)cc[n+]1CC(=O)c1ccc(F)cc1 | 11.3 | 5.03 | 8.13 | 0.99 | 14.6 |  |  | 
5 | c1ccc(-c2oc3ccccc3c2Cn2ccnc2)cc1 | > 40 | > 40 | > 40 | > 40 | > 40 |  |  | 
6 | Brc1ccccc1C[n+]1cnn(Cc2c(-c3ccccc3)oc3ccccc23)c1 | 18.9 | 16.3 | 21.9 | 9 | 33.1 |  |  | 
7 | Brc1ccccc1C[n+]1ccn(Cc2c(-c3ccccc3)oc3ccccc23)c1 | 10.3 | 5.58 | 6.61 | 1.86 | 11.2 |  |  | 
8 | O=C(C[n+]1cn(Cc2c(-c3ccccc3)oc3ccccc23)c2ccccc21)c1ccc(O)cc1 | 18.2 | 16.2 | 20.7 | 13 | 34 |  |  | 
9 | O=C(C[n+]1ccn(Cc2c(-c3ccccc3)oc3ccccc23)c1)c1ccc2ccccc2c1 | 3.48 | 3.68 | 9.42 | 2.06 | 14 |  |  | 
10 | c1ccc(C[n+]2cn(Cc3c(-c4ccccc4)oc4ccccc34)c3ccccc32)cc1 | 3.26 | 3.49 | 4.81 | 1.96 | 7.09 | 1.54 |  | 
11 | CCc1n(Cc2c(-c3ccccc3)oc3ccccc23)cc[n+]1CC(=O)c1ccc(OC)cc1 | 5.69 | 3.17 | 11.8 | 0.58 | 12.9 |  |  | 
12 | CCc1n(Cc2c(-c3ccccc3)oc3ccccc23)cc[n+]1CC(=O)c1ccccc1 | 11.9 | 7.53 | 5.01 | 2.09 | 12.5 |  |  | 
13 | CCc1nccn1Cc1c(-c2ccccc2)oc2ccccc12 | > 40 | > 40 | > 40 | > 40 | > 40 |  |  | 
14 | O=C(C[n+]1ccn(Cc2c(-c3ccccc3)oc3ccccc23)c1)c1ccc(Br)cc1 | 3.36 | 3.65 | 17.8 | 1.57 | 13.8 |  |  | 
15 | Brc1ccccc1C[n+]1cn(Cc2c(-c3ccccc3)oc3ccccc23)c2ccccc21 | 5.56 | 4.78 | 2.1 | 0.64 | 3.34 | 1.52 |  | 
16 | O=C(C[n+]1cn(Cc2c(-c3ccccc3)oc3ccccc23)c2ccccc21)c1ccc2ccccc2c1 | 3.61 | 3.24 | 2.63 | 2.34 | 4.5 |  |  | 
17 | O=C(C[n+]1cnn(Cc2c(-c3ccccc3)oc3ccccc23)c1)c1ccc(Br)cc1 | 14.6 | 10.4 | 10.8 | 9.71 | 14.6 |  |  | 
18 | c1ccc(-c2oc3ccccc3c2Cn2cnc3ccccc32)cc1 | > 40 | > 40 | > 40 | > 40 | > 40 |  |  | 
19 | O=C(C[n+]1cn(Cc2c(-c3ccccc3)oc3ccccc23)c2ccccc21)c1ccc(F)cc1 | 3.29 | 3.13 | 9.41 | 2.03 | 11.8 |  |  | 

Row | SMILES | IC50 (SW480 [1]) [µM] | IC50 (MCF7 [2]) [µM] | IC50 (SMMC-7721) [µM] | IC50 (HL-60) [µM] | IC50 (A549) [µM] | Ratio [3] | Ratio IC50 (MCF7 [4]) | Ratio IC50 (SW480 [5])
20 | CCc1n(Cc2c(-c3ccccc3)oc3ccccc23)cc[n+]1CC(=O)c1ccc2ccccc2c1 | 3.14 | 3.03 | 2.3 | 0.61 | 5.35 | 1.55 |  | 
21 | O=C(C[n+]1cnn(Cc2c(-c3ccccc3)oc3ccccc23)c1)c1ccc(F)cc1 | 16.8 | 16.4 | 9.21 | 9.67 | 15.1 |  |  | 
22 | COc1ccc(C(=O)C[n+]2ccn(Cc3c(-c4ccccc4)oc4ccccc34)c2)cc1 | 11.9 | 10.3 | 16.5 | 2.28 | 16.3 | 1.12 |  | 
23 | O=C(C[n+]1ccn(Cc2c(-c3ccccc3)oc3ccccc23)c1)c1ccc(F)cc1 | 15.5 | 14.6 | 13.4 | 2.98 | > 40 |  |  | 
24 | COc1ccc(C(=O)C[n+]2cnn(Cc3c(-c4ccccc4)oc4ccccc34)c2)cc1 | 17.2 | 14.9 | 5.76 | 3.22 | 13.7 |  |  | 
25 | c1ccc(-c2oc3ccccc3c2Cn2cncn2)cc1 | > 40 | > 40 | > 40 | > 40 | > 40 |  |  | 
26 | CO[C@H]1C[C@@H]2CC[C@@H](C)[C@@](O)(O2)C(=O)C(=O)N2CCCC[C@H]2C(=O)O[C@H]([C@H](C)C[C@@H]2CC[C@@H](O)[C@H](OC)C2)CC(=O)[C@H](C)/C=C(\C)[C@@H](O)[C@@H](OC)C(=O)[C@H](C)C[C@H](C)/C=C/C=C/C=C/1C |  |  |  |  |  | 1.59 |  | 
27 | O=C(C[n+]1cnn(Cc2c(-c3ccccc3)oc3ccccc23)c1)c1ccc(O)cc1 | > 40 | > 40 | > 40 | > 40 | > 40 |  |  | 
28 | CCCC[n+]1cnn(Cc2c(-c3ccccc3)oc3ccccc23)c1 | > 40 | > 40 | > 40 | > 40 | > 40 |  |  | 
29 | O=C(C[n+]1ccn(Cc2c(-c3ccccc3)oc3ccccc23)c1)c1ccc(O)cc1 | > 40 | > 40 | > 40 | > 40 | > 40 |  |  | 
30 | CCc1n(Cc2c(-c3ccccc3)oc3ccccc23)cc[n+]1Cc1ccccc1Br.[Br-] | 0.47 | 0.51 | 0.52 | 0.08 | 0.55 | 1.07 | 40.8 | 40.1
31 | CCc1n(Cc2c(-c3ccccc3)oc3ccccc23)cc[n+]1CC(=O)c1ccc(O)cc1 | > 40 | 17.4 | 13.1 | 13.2 | 27.1 |  |  | 
32 | O=C(C[n+]1cnn(Cc2c(-c3ccccc3)oc3ccccc23)c1)c1ccc2ccccc2c1 | 2.89 | 3.11 | 1.86 | 2.33 | 2.06 | 0.96 |  | 
33 | O=C(C[n+]1cnn(Cc2c(-c3ccccc3)oc3ccccc23)c1)c1ccccc1 | 17.1 | 14.7 | 5.76 | 3.51 | 13.7 | 1.11 |  | 
34 | COc1ccc(C(=O)C[n+]2cn(Cc3c(-c4ccccc4)oc4ccccc34)c3ccccc32)cc1 | > 40 | 23.8 | 16.6 | 0.61 | 9.12 | 1.32 |  | 
35 | O=C(c1ccccc1)C(c1ccccc1)[n+]1cnn(Cc2c(-c3ccccc3)oc3ccccc23)c1 (stereo unspecified) | 20.9 | 20.7 | 16.1 | 15.9 | 16.8 |  |  | 
36 | O=C(C[n+]1cn(Cc2c(-c3ccccc3)oc3ccccc23)c2ccccc21)c1ccc(Br)cc1 | 4.37 | 4.08 | 2.94 | 2.11 | 5.25 |  |  | 
37 | O=C(C[n+]1ccn(Cc2c(-c3ccccc3)oc3ccccc23)c1)c1ccccc1 | 15.5 | 15.5 | 9.83 | 2.49 | > 40 |  |  | 
